Measured values reported in patent US5362728A, “4,5-bridged-2,3,4,5-tetrahydro-1H-3-benzazepine-7-ols and derivatives and compositions and methods employing such compounds” (Schering Corporation, priority 1992, dated 1994).
Where two headings read alike, the source gives them in different places.

Columns and labels:
dopamine D-1 receptor = biological target: T1, dopamine D-1 receptor (Rattus norvegicus, UniProt P18901); experiment: Competitive inhibition assay, 3H-SCH 23390 binding (D-1), rat striatal tissue; design: species or system rat (male Sprague-Dawley)
T1 construct: Striatal tissue is excised, pooled, and homogenized; from tissue; host or cells: rat striatum, washed membrane homogenate
T1 sequence (P18901 whole entry): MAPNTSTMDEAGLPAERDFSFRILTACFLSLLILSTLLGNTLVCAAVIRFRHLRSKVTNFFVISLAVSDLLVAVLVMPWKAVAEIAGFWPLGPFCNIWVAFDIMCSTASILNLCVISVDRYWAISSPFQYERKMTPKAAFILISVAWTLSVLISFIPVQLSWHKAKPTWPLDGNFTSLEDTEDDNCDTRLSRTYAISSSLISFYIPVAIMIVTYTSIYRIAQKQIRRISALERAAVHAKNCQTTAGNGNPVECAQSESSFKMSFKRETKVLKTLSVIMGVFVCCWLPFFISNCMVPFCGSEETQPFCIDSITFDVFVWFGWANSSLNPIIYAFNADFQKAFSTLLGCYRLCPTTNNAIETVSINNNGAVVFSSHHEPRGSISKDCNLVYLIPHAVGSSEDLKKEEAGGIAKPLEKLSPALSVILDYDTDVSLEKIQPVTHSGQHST
Text: (§1) A methodology for characterization of D-1 and D-2 receptor binding and an interpretation of the data are described by Billard et al., Life Sciences 35, 1885 (1984) in which the binding of the benzazepine (R)-(+)-8-chloro-2,3,4,5-tetrahydro-3-methyl-5-phenyl-1H-3-benzazepin-7-olhemimaleate (SCH 23390) to the dopamine D-1 receptor is characterized. A selectivity for D-1 receptor binding as compared to D-2 receptor binding .is believed to confer the therapeutic advantage of avoiding troublesome and potentially irreversible neurological side effects associated with D-2 receptor occupancy.
(§2) Tritiated SCH 23390 and tritiated spiperone (a potent D-2 receptor ligand) are obtained as described in the Billard et al. reference supra and serially diluted in 0.05M Tris buffer, pH 7.4, as required. Compounds of this invention are synthesized as disclosed herein and diluted in 0.05M Tris buffer, pH 7.4, as required.
(§3) Male Sprague-Dawley rats (200 to 250 g) from Charles River Breeding Laboratories, Mass. are used to obtain brain tissue. The rats are humanely sacrificed and their brains removed and placed on ice. Striatal tissue is excised, pooled, and homogenized (Brinkman Polytron, 10 sec) in 100 volumes (w/v) of ice cold 50 mM Tds buffer, pH 7.4 (at 25° C.). The homogenate is centrifuged at 20,000 xg for 10 min. The resultant pellet is rehomogenized in Tris buffer and centrifuged again. The final pellet is resuspended in 50 mM Tris buffer pH 7.4 containing 120 mM NaCl, 5 mM KCl, 2 mM CaCl2, and 1 mM MgCl2.
(§4) Polypropylene incubation tubes receive 100 μl of the individual test compounds at vadous concentrations dissolved or suspended in 0.05M Tris, pH 7.4 containing 4 mg/ml methylcellulose, 100 μl of a solution of ^3 H-SCH 23390 in Tris buffer (final reaction mixture concentration=0.3 nM) or 100 μl of a solution of ^3 H-spiperone in Tris buffer (final concentration=0.2 nM) and 800 μl of tissue suspension (ca. 3 mg/assay). Tubes are incubated at 37° C. for 15 minutes and rapidly vacuum filtered through Whatman GF/B filters and rinsed 4 times with 4 ml of ice cold 50 mM Tds buffer, pH 7.4. The filters are transferred to scintillation vials, equilibated with 10 ml of scintillant (Scintosol, Isolab, Inc.) for 16 hours at 25° C. and the radioactivity determined in a liquid scintillation counter, Ki values are determined as described by Billard et al. using the relationship Kj = IC50 /(1+([L]/KD)) wherein IC50 =concentration of test drug necessary to displace 50% of specifically bound ^3 H-Sch 23390, [L]=concentration of radioligand used in the assay, and KD =dissociation constant.

D-2 receptor = biological target: T2, D-2 receptor (Rattus norvegicus, UniProt P61169); experiment: Competitive inhibition assay, 3H-spiperone binding (D-2), rat striatal tissue; design: species or system rat (male Sprague-Dawley)
T2 construct: Striatal tissue is excised, pooled, and homogenized; from tissue; host or cells: rat striatum, washed membrane homogenate
T2 sequence (P61169 whole entry): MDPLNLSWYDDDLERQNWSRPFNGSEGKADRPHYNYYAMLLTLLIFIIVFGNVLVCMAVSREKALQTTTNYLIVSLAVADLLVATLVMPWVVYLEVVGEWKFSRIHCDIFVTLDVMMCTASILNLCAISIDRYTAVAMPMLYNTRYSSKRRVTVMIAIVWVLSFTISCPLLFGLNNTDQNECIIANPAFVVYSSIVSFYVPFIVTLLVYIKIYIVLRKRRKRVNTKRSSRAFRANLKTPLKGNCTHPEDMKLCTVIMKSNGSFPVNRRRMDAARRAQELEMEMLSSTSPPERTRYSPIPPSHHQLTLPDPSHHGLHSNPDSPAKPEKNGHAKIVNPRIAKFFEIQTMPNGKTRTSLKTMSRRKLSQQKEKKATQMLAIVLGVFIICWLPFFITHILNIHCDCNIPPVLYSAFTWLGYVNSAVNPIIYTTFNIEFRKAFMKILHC
Text: as §1, §2, §3, §4

squirrel monkey = experiment: Squirrel monkey conditioned avoidance response (CAR) test; assay type: in vivo; conditions: Primates, po, read-out: CAR(MED) Sq. Monkey @ 1 hr
Text: SQUIRREL MONKEY CONDITIONED AVOIDANCE RESPONSE (CAR) TEST
This test is designed to measure the potency of candidate compounds in a primate species.
Male or female squirrel monkeys weighing 800-1200 g housed one per cage are utilized. Initially each monkey is taught to terminate a 3 mA electric shock delivered through the grid floor of the test cage and an overlapping tone by depressing a lever in the cage.
In the second phase of the testing, a ten second tone is turned on prior to the shock component. A lever press during the sounding of the tone terminates the tone and prevents the occurrence of the shock component and is denoted as an "avoidance".
The compound testing is commenced after three consecutive days of re-testing. […] The monkey must achieve at least an 85% correct avoidance before drug testing commences. If this minimal avoidance level is achieved, the next day the monkey is orally dosed or injected with the subject compounds in the appropriate vehicle and the number of avoidances are recorded. An animal is defined as having been "affected" by any drug treatment if there is a 50% loss of avoidance behavior relative to the performance of the animal when only the vehicle is injected. The minimal effective dose (MED) is defined as that dose producing an effect in at least 50% of the animals.
A test may be conducted to determine the effective potency of a compound in accordance with the present invention by comparing a compound of the invention to a known compound, (R)-(+)-8-chloro-2,3,4,5-tetrahydro-3-methyl-5-phenyl-1H-3-benzazepin-7-olhemimaleate, denoted as Compound B (Sch 23390). A compound of the invention administered 60 minutes prior to the test is compared to compound B administered 30 minutes prior to test.

[1] = Col. 7, 3H-SCH 23390 0.3 nM, rat striatum, 37° C., 15 min, pH 7.4, read-out: Ki (nM) 3H-Sch23390
[2] = Col. 8, 3H-spiperone 0.2 nM, rat striatum, 37° C., 15 min, pH 7.4, read-out: Ki (nM) 3H-Spip
[3] = Col. 9, p.o., 1 hr, minimal effective dose = dose producing an effect in at least 50% of the animals

SMILES | Ki (dopamine D-1 receptor; [1]) | Ki (D-2 receptor; [2]) | minimal effective dose (squirrel monkey; [3]) | Ki (dopamine D-1 receptor) | Ki (D-2 receptor) | minimal effective dose (squirrel monkey; 1 h)
CN1CCc2cc(Cl)c(O)cc2[C@@H]2CCC[C@H]21 (relative stereo) | 2.8 nM | 380 nM | > 10 mg/kg |  |  | 
Cc1ccc(NC(=O)Oc2cc3c(cc2Cl)CCN(C)[C@@H]2CCC[C@@H]32)c(C)c1 (relative stereo) |  |  |  | 7.7 nM | 428 nM | > 3 mg/kg
CCCCC(=O)Oc1cc2c(cc1Cl)CCN(C)C1CCCC21 (centres unmarked) | 24 nM | 177 nM |  |  |  | 
CC(C)c1ccc(NC(=O)Oc2cc3c(cc2Cl)CCN(C)[C@@H]2CCC[C@@H]32)cc1 (relative stereo) |  |  |  | 5.4 nM | 430 nM | 
CN1CCc2ccc(O)cc2[C@@H]2CCC[C@H]21 (relative stereo) | 335 nM | 2320 nM |  |  |  | 
Cc1cc2c(cc1O)[C@H]1[C@@H](CC[C@@H]1C)N(C)CC2 (relative stereo) | 14 nM | 840 nM | 3 mg/kg |  |  | 
Oc1cc2c(cc1Cl)CCN[C@@H]1CCC[C@@H]21 (relative stereo) | 96 nM | 1300 nM |  |  |  | 
Cc1cc2c(cc1O)[C@@H]1CCCC[C@H]1N(C)CC2 (relative stereo) | 70 nM | 71000 nM | > 10 mg/kg |  |  | 
C[C@H]1CC[C@@H]2[C@@H](C1)c1cc(O)c(Cl)cc1CCN2C (relative stereo) | 70 nM | > 10000 nM | > 10 mg/kg |  |  | 
C[C@H]1CC[C@@H]2[C@@H]1c1cc(O)c(Cl)cc1CCN2C (relative stereo) | 3 nM | 350 nM | > 10 mg/kg |  |  | 
